# Where a name gives a salt, the structure may show the parent alone. ± gives the standard error.
# What was measured:
# 621-102 (TSC2-deficient) = experiment: relative viability vs DMSO; higher = less cytotoxic; conditions: serum: 10% FBS, 72 h
# 621-103 (TSC2-rescued) = experiment: as above; conditions: serum: 10% FBS, 72 h
# 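Further: immortalized renal angiomyolipoma cells stably carrying empty vector or TSC2, dosed in 384-well plates in DMEM, viability normalized to vehicle-treated wells within each plate.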
SMILES,relative viability (621-102 (TSC2-deficient); 0.0001 µM) [%],relative viability (621-102 (TSC2-deficient); 0.001 µM) [%],relative viability (621-102 (TSC2-deficient); 0.01 µM) [%],relative viability (621-102 (TSC2-deficient); 0.1 µM) [%],relative viability (621-102 (TSC2-deficient); 1 µM) [%],relative viability (621-102 (TSC2-deficient); 10 µM) [%],relative viability (621-103 (TSC2-rescued); 0.0001 µM) [%],relative viability (621-103 (TSC2-rescued); 0.001 µM) [%],relative viability (621-103 (TSC2-rescued); 0.01 µM) [%],relative viability (621-103 (TSC2-rescued); 0.1 µM) [%],relative viability (621-103 (TSC2-rescued); 1 µM) [%],relative viability (621-103 (TSC2-rescued); 10 µM) [%]
CN1CC[C@H](c2c(O)cc(O)c3c(=O)cc(-c4ccccc4Cl)oc23)[C@H](O)C1 [Flavopiridol HCl],103 ± 1.6,98.59 ± 0.27,93.1 ± 5.7,49.2 ± 0.89,10.5 ± 0.34,10.1 ± 1.1,91.4 ± 6.3,88 ± 1.4,90.7 ± 3.4,55.2 ± 0.46,13 ± 0.61,11 ± 0.25
Cc1csc(-c2nnc(Nc3ccc(Oc4ncccc4-c4ccnc(N)n4)cc3)c3ccccc23)c1 [AMG900],84.8 ± 2,74.8 ± 1.5,75.4 ± 0.76,83.24 ± 0.43,78.91 ± 0.56,76 ± 2.4,88.9 ± 4.5,77.64 ± 0.67,71.5 ± 4.7,77.7 ± 1.1,65.8 ± 2.5,73.6 ± 1.5
O=C(c1ccccc1)c1ccc2n1CCC2C(=O)O (stereo unspecified) [Ketorolac],102 ± 1.8,102 ± 4.5,106 ± 2.7,109 ± 3.2,117 ± 4.6,94.8 ± 7.1,96.9 ± 1.1,121 ± 6.7,128 ± 4,112 ± 3.3,98.25 ± 0.73,108 ± 1.6
Cc1nnc(C(C)C)n1[C@H]1C[C@H]2CC[C@@H](C1)N2CC[C@H](NC(=O)C1CCC(F)(F)CC1)c1ccccc1 [Maraviroc (Selzentry)],94.8 ± 3.3,106 ± 1.5,107 ± 2.3,101 ± 2.6,108.3 ± 0.76,107 ± 1.8,100.6 ± 0.78,101 ± 2.7,99.264 ± 0.066,103 ± 2.9,98.1 ± 1.4,97.2 ± 1.1
CCc1nc(N)nc(N)c1-c1ccc(Cl)cc1 [Pyrimethamine],99.7 ± 4.9,108.7 ± 0.4,95.6 ± 3.3,95.7 ± 2.5,100 ± 1.8,93.14 ± 0.75,105 ± 2,105.5 ± 0.94,104 ± 3.5,101 ± 2,104.3 ± 0.2,102 ± 4.4
CN1[C@@H]2CC[C@H]1C[C@@H](OC(=O)C(CO)c1ccccc1)C2 (stereo partly specified) [Atropine sulfate monohydrate],64.6 ± 5.9,79 ± 1.7,83.3 ± 5.4,79.6 ± 6.8,70.8 ± 5.3,63.6 ± 6.5,80.5 ± 7,92.1 ± 8.5,105 ± 6.5,97.9 ± 6.4,89.9 ± 3.7,80.3 ± 5
Cc1cccc(-c2[nH]c(C(C)(C)C)nc2-c2ccc3nccnc3c2)n1,115.4 ± 0.35,111 ± 2.5,101.9 ± 0.66,108.6 ± 0.23,105 ± 2.2,38.9 ± 2.9,98.4 ± 1.4,99.6 ± 2.7,97.58 ± 0.26,95.9 ± 2.7,97.18 ± 0.62,83.8 ± 1.5
O=c1cc(-c2cccc3c2Sc2ccccc2S3)oc(N2CCOCC2)c1,101 ± 3,99.73 ± 0.79,98.3 ± 3.2,94.4 ± 1.1,100 ± 2.1,80.3 ± 0.73,78.3 ± 1.3,90.23 ± 0.51,85 ± 3.9,82.9 ± 0.99,77.06 ± 0.31,69.3 ± 3.3
Cn1cc(/C=C/C(=O)c2cccc(F)c2)cc1/C=C/C(=O)NO [MC1568],109.3 ± 0.42,106.9 ± 0.32,103 ± 7.3,104 ± 2.1,98.5 ± 4.7,102.6 ± 0.25,99.97 ± 0.52,98 ± 1,99.34 ± 0.99,98.5 ± 1.1,100 ± 1.3,101 ± 1.5
COc1cccc2cc(-c3nc([C@H]4CC[C@H](C(=O)O)CC4)n4ncnc(N)c34)[nH]c12 [OSI-027],79.6 ± 8.2,88.5 ± 5.6,91.5 ± 7,90 ± 1.8,77.9 ± 2.4,25.2 ± 0.58,105 ± 2.6,101.3 ± 0.67,100.8 ± 0.85,94.6 ± 4.2,81.7 ± 4.1,32.3 ± 0.85
CCN(CC)CCNC(=O)c1c(C)[nH]c(/C=C2\C(=O)Nc3ccc(F)cc32)c1C [Sunitinib Malate],98.8 ± 6.5,110 ± 7,107 ± 5.9,110 ± 3.6,125 ± 4.1,71 ± 1.9,102 ± 2.3,106 ± 1.5,105.8 ± 0.65,105 ± 1.8,103.2 ± 0.44,30.5 ± 0.91
C[C@]1(c2nc3c(C(N)=O)cccc3[nH]2)CCCN1 [ABT-888],129 ± 4.1,118 ± 1.3,124.3 ± 1.1,120 ± 1.6,122 ± 2.6,104 ± 3.6,104.8 ± 1,103.4 ± 0.84,104 ± 0.11,104.7 ± 0.51,105 ± 1.5,103 ± 1.3
C=CCNC1=C2C[C@@H](C)C[C@H](OC)[C@H](O)[C@@H](C)/C=C(\C)[C@H](OC(N)=O)[C@@H](OC)/C=C\C=C(/C)C(=O)NC(=CC1=O)C2=O [17-AAG (Geldanamycin)],105 ± 1.4,100.9 ± 0.99,72.2 ± 2.9,25.7 ± 0.57,23.2 ± 0.81,25.3 ± 0.31,104.5 ± 0.96,104 ± 3,72.4 ± 3.8,14.3 ± 0.16,6.05 ± 0.096,6.31 ± 0.22
CCOC(=O)[C@H](CCc1ccccc1)N[C@@H](C)C(=O)N1CCC[C@H]1C(=O)O [Enalapril Maleate],103 ± 1.4,92.6 ± 3.4,101.9 ± 0.59,101 ± 3.5,105 ± 4.1,100.5 ± 0.3,99 ± 1.8,100 ± 2.9,89.7 ± 10,100 ± 1.5,99.6 ± 0.35,103 ± 2.4
COC(=O)[C@@H]1[C@H]2C[C@H]3c4[nH]c5ccccc5c4CCN3C[C@@H]2CC[C@@H]1O [Yohimbine HCl],106 ± 2.6,104 ± 1.2,104 ± 2.2,100.9 ± 0.15,100 ± 5.2,100 ± 2.6,104 ± 3.8,105 ± 3.1,105 ± 3.5,97 ± 3,99.4 ± 4.7,96.5 ± 3.8
Cc1ccc(NC(=O)c2ccc(CN3CCN(C)CC3)cc2)cc1Nc1nccc(-c2cccnc2)n1 [Imatinib Mesylate],99 ± 2.9,113 ± 3.7,108 ± 3.2,111 ± 3.6,107 ± 3.1,94.78 ± 0.7,95.2 ± 5.4,90.4 ± 3.4,101.6 ± 0.44,97.9 ± 1.8,98.3 ± 4.3,94.8 ± 4.8
CCS(=O)(=O)Nc1ccc2c(c1)/C(=C(/Nc1ccc(CN3CCCCC3)cc1)c1ccccc1)C(=O)N2 [Hesperadin],105 ± 6.1,95.5 ± 3.5,77.4 ± 2.1,85.2 ± 1.8,59.2 ± 1.9,2.25 ± 0.32,100 ± 3.2,93.1 ± 1.2,97.46 ± 0.18,85.6 ± 0.14,42.75 ± 0.27,3.8 ± 0.2
CS(=O)(=O)c1ccc(C(=O)Nc2ccc(Cl)c(-c3ccccn3)c2)c(Cl)c1 [GDC-0449 (Vismodegib)],103 ± 2.5,111.7 ± 0.39,111.9 ± 0.39,111 ± 2.7,116.2 ± 0.59,104 ± 1.8,100.4 ± 1,100 ± 1.6,103 ± 1.6,102.1 ± 0.15,103.2 ± 0.18,102 ± 0.43
